Assay: gradient 5% acetonitrile 3 min, to 50% in 2 min, to 85% in 15 min, held 3 min, 100 µL/min
Conditions: column: Zorbax Extend-C18 2.1 x 50 mm; eluents: water / acetonitrile, 0.1% formic acid
How it was run: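 The system's dead and dwell volumes were 40 μL and 900 μL, with a Zorbax Extend-C18 column (2.1 × 50 mm, 1.8 μm) run at 100 μL/min in water and acetonitrile containing 0.1% formic acid each. Pure standards were analyzed in mixtures of ~100 molecules by HPLC–quadrupole time-of-flight mass spectrometry in positive and negative ionization mode. Retention time was assigned from computationally picked, manually inspected adduct peaks.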

Compound	RP-LC retention time [s]
COc1ccc(Cc2nc(-c3cccc(-c4ccnn4C)c3)no2)cc1OC	904
CCn1cnc(S(=O)(=O)N2CCC(C(=O)Nc3ccc(OC)c(Cl)c3)CC2)c1	724
CN1CCN(c2nc3ccccc3nc2Cl)CC1	650
CCOC(=O)c1noc2ncnc(N3CCC(c4ccccc4)C3)c12 (stereo not given)	1030
COC(=O)c1c(NCCCN2CCCC2)c2cccc(Cl)c2[nH]c1=O	550
CCS(=O)(=O)Nc1ccc(-c2noc(COc3ccccc3)n2)cc1	923
CCn1cc(C(=O)Nc2cccc(C)c2)c2cccnc21	857
CCN1C(=O)C2CCCCN2c2ccc(C(=O)NCc3ccccc3)cc21 (stereo not given)	908
COCCc1noc(-c2cnc3nc(C)ccc3c2Nc2ccccc2Cl)n1	779
COc1ccc(OC)c(NC(=O)N2CCC(CC(=O)NCc3ccc(F)cc3)CC2)c1	803
Cc1cccc(NC(=O)N2CCCC2c2c(C)noc2C)c1 (stereo not given)	771
Cc1ccc(NC(=O)Nc2nccn(-c3ccc(F)c(F)c3)c2=O)cc1F	1020
Cc1cc(NC(=O)NCCn2nnc3cc(C(=O)N4CCCC4)ccc32)ccc1Br	740
CC(C)c1nc(N2CCN(c3ccccc3)CC2)ncc1C(=O)O	868
CC(C)Cn1c(=O)c(N2CCN(C(=O)CCCc3ccccc3)CC2)nc2ccncc21	742
O=C(CN1C(=O)CSc2cccn2-c2ccccc21)NCCC1=CCCCC1	1030
CCCn1cc(CCNC(=O)c2cc3ccccc3[nH]2)c2cccnc21	794
CC(C)c1nncn1C1CCN(C(=O)c2cc(-c3cccs3)[nH]n2)C1 (stereo not given)	617
Cc1nnc(Cc2ccccc2)c2n[nH]c(C)c12	647
COc1cccc2c(=O)c(NC(=O)N3CCCC(C(N)=O)C3)c[nH]c12 (stereo not given)	580
CC(C)CC(=O)Nc1nc(-c2ccc3c(c2)NC(=O)CO3)cs1	787
Cc1csc(NC(=O)Cc2cc(-c3cccs3)on2)n1	763
O=S(=O)(Cc1ccccc1)N1CCC(c2noc(-c3cccnc3)n2)C1 (stereo not given)	822

Compound	RP-LC retention time [s]
CCCn1c(=O)c(C)nc2cc(-c3noc(COc4ccccc4)n3)ccc21	1070
COc1ccccc1Oc1ccc(S(=O)(=O)N2CCCC2)cc1	914
Cc1ccc(-c2nc(C)c(C(=O)NC(C)C)s2)cc1	949
CCCNc1cc(N2CCCC(CCC(=O)NCc3ccc(F)cc3)C2)ncn1 (stereo not given)	683
CCCOc1nccnc1NC1CCN(C(=O)c2ccnn2C)CC1	706
Cc1cc(N2CCN(C)CC2)nc2ccc(NC(=O)Nc3ccccc3)cc12	564
COc1cccc(N2CCN(C(=O)Cn3ccc4c(c(C)nn4-c4ccccc4)c3=O)CC2)c1	828
CCn1cnc(S(=O)(=O)N2CCC(C(=O)NCc3ccc4c(c3)OCO4)CC2)c1	684
CCC(=O)N1CCc2c(C(=O)NC(C)C)cccc21	687
O=C(NCc1ccc2c(c1)OCO2)C1CCCN(c2cnc3nccnc3c2)C1 (stereo not given)	666
Cc1nc(C2CCOCC2)n(C2CCN(S(=O)(=O)c3cccnc3)C2)n1 (stereo not given)	622
CCN1CCN(CC2=C(C(=O)OC)C(c3ccccc3C)NC(=O)N2)CC1 (stereo not given)	615
Cc1ccc(NC(=O)N2CCCC(Cn3c(C4CC4)nc4cccnc43)C2)cc1C (stereo not given)	694
CN(CCNc1nc2ccncc2n(Cc2ccccc2)c1=O)C1CCCCC1	573
Cc1noc2nc(C)n(CC(=O)NCc3ccccc3F)c(=O)c12	710
O=C(NCCCN1CCCC1=O)c1ccc(CN2CC(=O)N3CCCC3C2=O)cc1 (stereo not given)	583
CCOC(=O)C1=Cc2ccc(C(F)(F)C(F)(F)F)cc2N=C(N)C1	794
CN(CC1(C)CCOCC1)S(=O)(=O)c1ccc(C(F)(F)F)cc1	997
COc1ccc(-c2noc(-c3nc(Cc4ccc(F)cc4)no3)n2)cc1	1170
CC1=C(c2ccccc2)S(=O)(=O)N=C1N1CCCN(C(=O)c2cccc(F)c2)CC1	847
COC(=O)c1cnc(N2CCN(c3ccccc3F)CC2)c2ccccc12	1240
COc1ccccc1-c1nc2nccc(-c3ccc(Br)s3)n2n1	1020
COc1ccc(F)cc1S(=O)(=O)N1CCC2(CCC(CN3CCN(C)CC3)O2)CC1 (stereo not given)	601

Compound	RP-LC retention time [s]
CCOC(=O)c1c(C)[nH]c(CCC(=O)Nc2cc(F)ccc2F)c1C	933
COc1ccc(C(=O)NC(c2ccccc2)c2nnc(N3CCCC3)o2)cc1 (stereo not given)	756
Cc1ccccc1CNC(=O)c1cn(C)nc1S(=O)(=O)N1CCSCC1	887
COc1cccc(NC(=O)C2CC(=O)N(c3ccc4c(c3)CCN4C(=O)C3CCC3)C2)c1 (stereo not given)	817
CCCOC(=O)C1=C(C)NC2=C(C(=O)C(C(=O)OC)C(C)C2)C1c1ccc(N(C)C)cc1 (stereo not given)	668
O=C1CC(c2nc(-c3cccc(C(F)(F)F)c3)no2)CN1c1ccc2c(c1)OCO2 (stereo not given)	1020
O=C1Cc2cc(NC(=O)NCCCc3ccccc3)ccc2N1	657
O=C(Cn1nc2c(N3CCCCCC3)nccn2c1=O)Nc1ccccc1F	682
CCn1cc(-c2nc(C(=O)NCc3ccc(F)cc3Cl)cs2)c2cccnc21	1070
Cc1ccccc1Cn1cccc1CNC(=O)Nc1ccc2c(c1)OCO2	931
Cc1nc(Nc2ccc(Br)cn2)sc1C(=O)N1CCC(C(N)=O)CC1	642
O=C(c1csc(-c2ccc(N3CCCC3)nc2)n1)N1CCCCCC1	937
Cc1cccc(CN2CCN(C3CCN(C(=O)Nc4ccc5c(c4)OCO5)CC3)C2=O)c1	836
CCCS(=O)(=O)c1ccc(NC2CCN(Cc3ccccc3)CC2)nn1	602
COc1ccc(CCC(=O)N2CCC(c3cc(N)on3)CC2)cc1	681
CCc1noc(NC(C)=O)c1-c1ccc(C)c(S(=O)(=O)Nc2ccccc2C)c1	836
Cc1ccc(-c2csc(NC(=O)CN3CCN(C(=O)C4CCCO4)CC3)n2)cc1 (stereo not given)	681
COc1cccc(CNC(=O)Cn2ccc3ccc(-c4nnc(C)o4)cc32)c1	756
COc1ccc(-c2noc(Cn3c(=O)n(CC4CCCO4)c(=O)c4ccccc43)n2)cc1OC (stereo not given)	828
CCc1nnc([C@@H]2CC(F)(F)CN2C(=O)c2coc(C)n2)o1	678
O=C(Nc1ccc2c(c1)OCCO2)C1CCN(c2cc(N3CCCCC3)ncn2)CC1	667
CCn1nccc1C(=O)N1CCCC1c1ccccc1Cl (stereo not given)	849
CCOc1ccc(CC(=O)NCCc2nc3cccnc3n2C)cc1	733

Compound	RP-LC retention time [s]
Cc1nn(CC(=O)NC2CCCCCC2)c(=O)c2nc(-c3ccccc3)sc12	930
Cn1nc2c(c1NC(=O)c1cc(C(F)(F)F)cc(C(F)(F)F)c1)CCC2	927
O=C(Nc1cccc(Cl)c1)c1nnc(CCCC(=O)N2CCN(c3ccccn3)CC2)s1	669
CCN1C(=O)c2cc(S(=O)(=O)Nc3ccccc3F)ccc2Oc2cccnc21	924
COc1ccc(Oc2cc3c(cc2NS(=O)(=O)c2ccc(OC)c(OC)c2)n(C)c(=O)n3C)cc1	821
O=C1CCCc2nc(N3CCN(c4ccccn4)CC3)nc(Nc3ccccc3)c21	735
CN(CCCNC(=O)C1CCCN(c2ccc(N3CCOCC3)nn2)C1)c1ccccc1 (stereo not given)	570
O=C(CCc1nc(CSc2nc3ccccc3o2)no1)Nc1nc(-c2ccccc2)cs1	1030
COc1ccc(-c2ncc3c(n2)CCN(S(=O)(=O)c2ccc(F)c(Cl)c2)C3)cc1	1130
O=c1c2cc(-c3ccc4c(c3)OCO4)nn2ccn1Cc1nc(-c2cccc(C(F)(F)F)c2)no1	1110
COCCn1c(C)cc(O)c(C(c2ccc(Cl)cc2)N2CCC(C)CC2)c1=O (stereo not given)	644
O=C(CSC1CCc2ccccc2NC1=O)NCc1ccc(Cl)cc1Cl (stereo not given)	868
Cc1nn(C(C)C(=O)Nc2ccc(Cl)cn2)c(=O)c2c(-n3cccc3)n(-c3ccccc3)nc12 (stereo not given)	1120
O=C(Nc1cnc(N2CCCC2)nc1)c1ccccc1Br	717
CC(C)c1ccc(C2C(C(=O)c3ccccc3)C(=O)C(=O)N2CCCN2CCOCC2)cc1 (stereo not given)	725
Cc1ccc2nc(-c3cccc(F)c3)cc(C(N)=O)c2c1	880
COc1cc(OC)c(NS(=O)(=O)c2cc(-c3c(C)noc3NC(C)=O)ccc2C)cc1Cl	813
Cn1c(N2CCCC(C(=O)NCc3ccc(Cl)cc3)C2)cc(=O)n(C)c1=O (stereo not given)	710
Cc1ccc(C)c(NC(=O)c2cnc(-c3ccc(F)cc3)nc2-c2ccncc2)c1	943
CCN1CCn2cc(S(=O)(=O)N3CCN(c4ccccc4F)CC3)cc2C1=O	826
COc1ccc(N2CCN(C(=O)CC3CCN(C(=O)c4[nH]c(C)cc4C)CC3)CC2)cc1	739

From the METLIN SMRT retention time set (Domingo-Almenara et al. 2019)
